Consider 18 molecules from PMC7619385 (ACS infectious diseases, 2025).

This assay concerns the target T1, LmxCLK1 (Leishmania mexicana, UniProt E9AMP2).
T1 sequence (E9AMP2 1-422): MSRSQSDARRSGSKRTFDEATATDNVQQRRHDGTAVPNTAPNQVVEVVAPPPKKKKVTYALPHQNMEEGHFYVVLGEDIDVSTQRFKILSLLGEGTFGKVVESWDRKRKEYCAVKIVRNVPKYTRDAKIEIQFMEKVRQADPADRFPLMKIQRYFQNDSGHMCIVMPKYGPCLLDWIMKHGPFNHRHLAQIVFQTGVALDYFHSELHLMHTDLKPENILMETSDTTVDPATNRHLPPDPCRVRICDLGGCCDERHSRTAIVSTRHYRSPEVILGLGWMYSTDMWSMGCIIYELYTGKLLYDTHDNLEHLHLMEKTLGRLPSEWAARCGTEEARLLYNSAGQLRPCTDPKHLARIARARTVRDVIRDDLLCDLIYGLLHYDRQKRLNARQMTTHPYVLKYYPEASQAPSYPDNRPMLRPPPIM
The assay is described as follows: biochemical. It counts as binding.

[1] abbreviates: DSF, 10 µM compound, 2 µM LmxCLK1, Run 1.
[2] abbreviates: DSF, 10 µM compound, 2 µM LmxCLK1, Run 2.
Setting [3] is: DSF, 10 µM compound, 2 µM LmxCLK1, mean of two runs.
Where [4] appears, read: DSF, 10 µM compound, 2 µM LmxCLK1, Run 1, read-out: ΔTm Run 1.
The mark [5] stands for this setting: DSF, 10 µM compound, 2 µM LmxCLK1, Run 2, read-out: ΔTm Run 2.
[6] abbreviates: DSF, 10 µM compound, 2 µM LmxCLK1, mean of two runs, read-out: ΔTm Average.

Where two headings read alike, the source gives them in different places.

On to `CN(C)CCSSCCNC(=O)C1CCN(C(=O)CSc2ccc(Cl)cc2)CC1` [6H05], for which the “ΔTm Average” value is given as -0.1, the ΔTm Run 1 came out at 0.1 °C and the “ΔTm Run 2” value is on record as -0.2.
For the molecule `Cc1nc(NC(=O)N2CCC[C@H]2C(N)=O)sc1-c1csc(C(C)(C)C)n1` [A66], the ΔTm Average was determined as 0 °C, the ΔTm Run 1 stood at 0.4 °C and the “ΔTm Run 2” value is reported as -0.3.
The like results for `Cc1[nH]nc2ccc(-c3cncc(OC[C@@H](N)Cc4ccccc4)c3)cc12` [A-674563] were, in that order, 0.7 °C, 0.8 °C and 0.6 °C.
Turning to `Cc1c(NC(=O)OC[C@@H]2COCCN2)cn2ncnc(Nc3ccc4c(cnn4Cc4cccc(F)c4)c3)c12` [AC480 (BMS-599626)], the “ΔTm Run 1” value under setting [1] amounted to 0.4 °C. Besides, the “ΔTm Run 2” value under setting [2] worked out at 0.2 °C. For the same molecule, the “ΔTm Average” value under setting [3] is 0.3 °C.
The like results for `CCN1CCN(Cc2ccc(-c3cc4c(N[C@H](C)c5ccccc5)ncnc4[nH]3)cc2)CC1` [AEE788 (NVP-AEE788)] were, in that order, 0.2 °C, 0.3 °C and 0.3 °C.
Turning to `CC(C)(C)c1cc(C=C(C#N)C#N)cc(Br)c1O` [AG-1024], under setting [1], the “ΔTm Run 1” value worked out at 0.0 °C. Moreover, the “ΔTm Run 2” value under setting [2] was -0.2 °C. Moreover, the “ΔTm Average” value under setting [3] was -0.1 °C.
Consider `COc1cc2ncnc(Nc3cccc(Cl)c3)c2cc1OC` [AG-1478 (Tyrphostin AG-1478)], for which the “ΔTm Run 1” value under setting [1] amounted to 0.1 °C. Also, the “ΔTm Run 2” value under setting [2] is 0.3 °C. Further, the “ΔTm Average” value under setting [3] is 0.2 °C.
The like results for `COc1ccc2c(Oc3ccc(NC(=O)c4c(C)n(CC(C)(C)O)n(-c5ccccc5)c4=O)nc3)ccnc2c1` [AMG-458] were, in that order, 0.9 °C, 1.0 °C and 1.0 °C.
Take `COc1cc(N2CCC(N3CCN(C)CC3)CC2)ccc1Nc1ncc(Cl)c(Nc2ccccc2P(C)(C)=O)n1` [AP26113]: the ΔTm (usually the change in melting temperature against a reference sample) at 10 µM worked out at 1.1 °C under setting [4], 0.9 °C under setting [5] and 1 °C under setting [6].
In the case of `COc1ccc(CNC(=O)Nc2ncc([N+](=O)[O-])s2)cc1` [AR-A014418], the “ΔTm Run 1” value under setting [1] came out at 0.0 °C. The “ΔTm Run 2” value under setting [2] is -0.1 °C. Under setting [3], the “ΔTm Average” value is -0.1 °C.
In the case of `Clc1ccc(C2(c3ccc(-c4cn[nH]c4)cc3)CCNCC2)cc1` [AT7867], the “ΔTm Run 1” value under setting [1] amounted to 1.2 °C. For the same molecule, the “ΔTm Run 2” value under setting [2] came to 0.7 °C. In addition, under setting [3], the “ΔTm Average” value was 0.9 °C.
`O=C(Nc1c[nH]nc1-c1nc2ccc(CN3CCOCC3)cc2[nH]1)NC1CC1` [AT9283]: the ΔTm at 10 µM under setting [4] was found to be 2.2 °C, the ΔTm at 10 µM under setting [5] is 2.1 °C and the ΔTm at 10 µM under setting [6] is 2.2 °C.
In the case of `C=CC(=O)Nc1cccc(Nc2nc(Nc3ccc(OCCOC)cc3)ncc2F)c1` [AVL-292], the ΔTm at 10 µM was 0 °C under setting [4], -0.2 °C under setting [5] and -0.1 °C under setting [6].
Take `C[C@@H]1COCCN1c1cc(C2(S(C)(=O)=O)CC2)nc(-c2cccc3[nH]ccc23)n1` [AZ20]: the “ΔTm Average” value is on record as -0.3, the “ΔTm Run 1” value is given as -0.2 and the “ΔTm Run 2” value was -0.5.
With `Cc1ccc(NC(=O)c2cccc(C(C)(C)C#N)c2)cc1Nc1ccc2ncn(C)c(=O)c2c1` [AZ 628], the “ΔTm Run 1” value under setting [1] stood at 0.4 °C. In addition, under setting [2], the “ΔTm Run 2” value turned out to be 0.2 °C. Besides, the “ΔTm Average” value under setting [3] turned out to be 0.3 °C.
Consider `Cc1cc(Nc2nc(N[C@@H](C)c3ccc(F)cc3)c(C#N)cc2F)[nH]n1` [AZ 960], for which the ΔTm at 10 µM by setting is: under setting [4], 0.3 °C; under setting [5], 0.3 °C; under setting [6], 0.3 °C.
As to `N#Cc1ccc2[nH]c(O)c(-c3ccc(CN4CCOCC4)cn3)c2c1` [AZD1080], the ΔTm at 10 µM under setting [4] was 0.1 °C, the ΔTm at 10 µM under setting [5] is -0.2 °C and the ΔTm at 10 µM under setting [6] was -0.1 °C.
The like results for `Cc1cc(Nc2nc(N[C@@H](C)c3ncc(F)cn3)ncc2Cl)n[nH]1` [AZD1480] were, in that order, 0.6 °C, 0.5 °C and 0.6 °C.
